# Test results from patent US20060089375A1, “Pyrazolo[3,4-b] pyridine compounds, and their use as phosphodiesterase inhibitors” (priority 2002, published 2006).
# Molecular target: T1, PDE4B (human recombinant) (Homo sapiens, UniProt Q07343)
# T1 construct: made in house
# Experiment: Inhibition of PDE4B activity: radioactive SPA or IMAP Fluorescence Polarisation (FP) assay
# Type: biochemical
# Conditions: PDE4B inhibitory activity, one reading or average of ca. 2-6 readings, read-out: PDE4B pIC50 (± about 0.5) (converted)
# Description: Human recombinant PDE4B, in particular the 2B splice variant thereof (HSPDE4B2B), is disclosed in WO 94/20079 and also M. M. McLaughlin et al., “A low Km, rolipram-sensitive, cAMP-specific phosphodiesterase from human brain: cloning and expression of cDNA, biochemical characterisation of recombinant protein, and tissue distribution of mRNA”, J. Biol. Chem., 1993, 268, 6470-6476. For example, in Example 1 of WO 94/20079, human recombinant PDE4B is described as being expressed in the PDE-deficient yeast Saccharomyces cerevisiae strain GL62, e.g. after induction by addition of 150 uM CuSO4, and 100,000×g supernatant fractions of yeast cell lysates are described for use in the harvesting of PDE4B enzyme.
# The ability of compounds to inhibit catalytic activity at PDE4B or 4D (human recombinant), PDE3 (from bovine aorta), PDE5 (human recombinant) or PDE6 (from bovine retina) was determined by Scintillation Proximity Assay (SPA) in 96-well format. Test compounds (preferably as a solution in DMSO, e.g. 0.5 to 1 microlitre (ul) volume) were preincubated at ambient temperature (room temperature, e.g. 19-23° C.) in Wallac Isoplates (code 1450-514) with PDE enzyme in 50 mM Tris-HCl buffer pH 7.5, 8.3 mM MgCl2, 1.7 mM EGTA, 0.05% (w/v) bovine serum albumin for 10-30 minutes (usually 30 minutes). The enzyme concentration was adjusted so that no more than 20% hydrolysis of the substrate defined below occurred in control wells without compound, during the incubation. For the PDE3, PDE4B and PDE4D assays, [5′,8-^3H]Adenosine 3′,5′-cyclic phosphate (Amersham Pharmacia Biotech, code TRK.559; or Amersham Biosciences UK Ltd, Pollards Wood, Chalfont St Giles, Buckinghamshire HP8 4SP, UK) was added to give 0.05 uCi per well and ˜10 nM final concentration. For the PDE5 and PDE6 assays, [8-^3H]Guanosine 3′,5′-cyclic phosphate (Amersham Pharmacia Biotech, code TRK.392) was added to give 0.05 uCi per well and ˜36 nM final concentration. Plates, e.g. containing approx. 100 ul volume of assay mixture, were mixed on an orbital shaker for 5 minutes and incubated at ambient temperature for 1 hour. Phosphodiesterase SPA beads (Amersham Pharmacia Biotech, code RPNQ 0150) were added ([…] per well) to terminate the assay. Plates were sealed and shaken and allowed to stand at ambient temperature for 35 minutes to 1 hour (preferably 35 minutes) to allow the beads to settle. Bound radioactive product was measured using a WALLAC TRILUX 1450 Microbeta scintillation counter. For inhibition curves, 10 concentrations (1.5 nM-30 uM) of each compound were assayed. Curves were analysed using ActivityBase and XLfit (ID. Business Solutions Limited, 2 Ocean Court, Surrey Research Park, Guildford, Surrey GU2 7QB, United Kindgom) Results were expressed as pIC50 values.
# The ability of compounds to inhibit catalytic activity at PDE4B (human recombinant) or PDE4D (human recombinant) was determined by IMAP Fluorescence Polarisation ([…]) assay (IMAP Explorer kit, available from Molecular Devices Corporation, Sunnydale, Calif., USA; Molecular Devices code: R^8062) in 384-well format. The IMAP FP assay is able to measure PDE activity in an homogenous, non-radioactive assay format. The FP assay uses the ability of immobilised trivalent metal cations, coated onto nanoparticles (tiny beads), to bind the phosphate group of Fl-AMP that is produced on the hydrolysis of fluorescein-labelled (Fl) cyclic adenosine mono-phosphate (Fl-cAMP) to the non-cyclic Fl-AMP form. […] Binding of Fl-AMP product to the beads (coated with the immobilised trivalent cations) slows the rotation of the bound Fl-AMP and leads to an increase in the fluorescence polarisation ratio of parallel to perpendicular light. Inhibition of the PDE reduces/inhibits this signal increase. […]
# T1 sequence (Q07343 1-564 isoform Q07343-2): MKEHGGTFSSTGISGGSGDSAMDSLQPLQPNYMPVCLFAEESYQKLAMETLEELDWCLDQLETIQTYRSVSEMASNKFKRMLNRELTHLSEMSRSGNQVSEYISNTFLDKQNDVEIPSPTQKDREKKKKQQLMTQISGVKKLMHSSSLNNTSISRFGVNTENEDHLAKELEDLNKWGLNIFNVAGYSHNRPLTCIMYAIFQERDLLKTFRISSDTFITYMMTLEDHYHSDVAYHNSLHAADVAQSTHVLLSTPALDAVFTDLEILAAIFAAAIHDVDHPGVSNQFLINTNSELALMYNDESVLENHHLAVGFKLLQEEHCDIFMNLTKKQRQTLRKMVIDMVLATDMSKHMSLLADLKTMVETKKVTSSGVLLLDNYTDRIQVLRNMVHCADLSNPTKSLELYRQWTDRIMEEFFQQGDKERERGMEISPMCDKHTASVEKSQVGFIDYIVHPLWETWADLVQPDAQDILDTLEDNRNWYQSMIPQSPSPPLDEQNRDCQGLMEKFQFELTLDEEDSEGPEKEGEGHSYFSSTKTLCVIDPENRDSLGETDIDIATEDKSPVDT
row,SMILES,IC50
1,"CCOC(=O)c1cnc2c(cnn2CC)c1NC1CCSC1 (racemic) [Example 11, Ethyl 1-ethyl-4-(tetrahydrothien-3-ylamino)-1H-pyrazolo[3,4-b]pyridine-5-carboxylate]",39.8 nM
2,"CCOC(=O)c1cnc2c(cnn2CC)c1NC1CCCC1 [Example 1, Ethyl 4-(cyolopentylamino)-1-ethyl-1H-pyrazolo[3,4-b]pyridine-5-carboxylate]",12.6 to 100 nM
3,"CCOC(=O)c1cnc2c(cnn2CC)c1NC1CCCCC1 [Example 2, Ethyl 4-(cyclohexylamino)-1-ethyl-1H-pyrazolo[3,4-b]pyridine-5-carboxylate]",10 nM
4,CCOC(=O)c1cnc2c(cnn2C)c1NC1CCCC1 [Example 6],251 nM
5,"CCn1ncc2c(NC3CCCCC3)c(C(=O)NCc3ccncc3)cnc21 [Example 32, 4-(Cyolohexylamino)-1-ethyl-N-(pyridin-4-ylmethyl)-1H-pyrazolo[3,4-b]pyridine-5-carboxamide]",20 nM
6,"CCn1ncc2c(NC3CCN(C(C)=O)CC3)c(C(=O)NCc3ccccc3)cnc21 [Example 41, 4-[(1-Acetylpiperidin-4-yl)amino]-N-benzyl-1-ethyl-1H-pyrazolo[3,4-b]pyridine-5-carboxamide]",12.6 to 100 nM
7,"CCC(CC)CNC(=O)c1cnc2c(cnn2CC)c1NC1CCCC1 [Example 42, 4-(Cyclopentylamino)-1-ethyl-N-(2-ethylbutyl)-1H-pyrazolo[3,4-b]pyridine-5-carboxamide]",12.6 to 100 nM
8,"CCC(CC)CNC(=O)c1cnc2c(cnn2CC)c1NC1CCCCC1 [Example 43, 4-(Cyclohexylamino)-1-ethyl-N-(2-ethylbutyl)-1H-pyrazolo[3,4-b]pyridine-5-carboxamide]",12.6 to 100 nM
9,"CCn1ncc2c(NC3CCCCC3)c(C(=O)Nc3ccc(F)cc3)cnc21 [Example 48, 4-(Cyclohexylamino)-1-ethyl-N-(4-fluorophenyl)-1H-pyrazolo[3,4-b]pyridine-5-carboxamide]",12.6 to 100 nM
10,"CCCn1ncc2c(NC3CCOCC3)c(C(=O)NCc3ccc(S(C)(=O)=O)cc3)cnc21 [Example 187, N-[4-(Methylsulfonyl)benzyl]-1-n-propyl-4-(tetrahydro-2H-pyran-4-ylamino)-1H-pyrazolo[3,4-b]pyridine-5-carboxamide]",12.6 to 100 nM
11,"CCn1ncc2c(NC3CCCC(O)C3)c(C(=O)NCc3ccccc3)cnc21 (stereo not drawn) [Example 198, N-Benzyl-1-ethyl-4-[(3-hydroxycyclohexyl)amino]-1H-pyrazolo[3,4-b]pyridine-5-carboxamide]",3.16 nM
12,"CCn1ncc2c(NC3CCC(=O)CC3)c(C(=O)NCc3ccc(C)cc3C)cnc21 [Example 260, N-[(2,4-dimethylphenyl)methyl]-1-ethyl-4-[(4-oxocyclohexyl)amino]-1H-pyrazolo[3,4-b]pyridine-5-carboxamide]",0.1 to 6.31 nM
13,"CCn1ncc2c(NC3CCC(=O)CC3)c(C(=O)NCc3ccc(C)c(C)c3)cnc21 [Example 261, N-[(3,4-Dimethylphenyl)methyl]-1-ethyl-4-[(4-oxocyclohexyl)amino]-1H-pyrazolo[3,4-b]pyridine-5-carboxamide]",0.1 to 6.31 nM
14,CCn1ncc2c(NC3CCC(=O)CC3)c(C(=O)NCc3ccc(OC)cc3)cnc21 [Example 263],0.1 to 6.31 nM
15,"CCn1ncc2c(NC3CCC(=O)CC3)c(C(=O)NCc3ccc(N(C)C)cc3)cnc21 [Example 265, N-{[4-(Dimethylamino)phenyl]methyl}-1-ethyl-4-[(4-oxocyclohexyl)amino]-1H-pyrazolo[3,4-b]pyridine-5-carboxamide]",0.1 to 6.31 nM
16,"CCn1ncc2c(NC3CCC(=O)CC3)c(C(=O)NCc3ccc(OC(F)F)cc3)cnc21 [Example 266, N-({4-[(Difluoromethyl)oxy]phenyl}methyl)-1-ethyl-4-[(4-oxocyclohexyl)amino]-1H-pyrazolo[3,4-b]pyridine-5-carboxamide]",0.1 to 6.31 nM

# Results, then the compound that gave them:
row,IC50,SMILES
1,15.8 nM,"CCOC(=O)c1cnc2c(cnn2CC)c1NC1CCOCC1 [Example 3, Ethyl 1-ethyl-4-(tetrahydro-2H-pyran-4-ylamino)-1H-pyrazolo[3,4-b]pyridine-5-carboxylate]"
2,12.6 to 100 nM,"CCn1ncc2c(NC3CCOCC3)c(C(N)=O)cnc21 [Example 36, 1-Ethyl-4-(tetrahydro-2H-pyran-4-ylamino)-1H-pyrazolo[3,4-b]pyridine-5-carboxamide]"
3,12.6 to 100 nM,"CCn1ncc2c(NC3CCCC3)c(C(=O)NCc3ccccc3)cnc21 [Example 39, N-Benzyl-4-(cyclopentylamino)-1-ethyl-1H-pyrazolo[3,4-b]pyridine-5-carboxamide]"
4,5.01 nM,"CCn1ncc2c(NC3CCCCC3)c(C(=O)NCc3ccccc3)cnc21 [Example 40, N-Benzyl-4-(cyclohexylamino)-1-ethyl-1H-pyrazolo[3,4-b]pyridine-5-carboxamide]"
5,12.6 to 100 nM,"CCC(CC)CNC(=O)c1cnc2c(cnn2CC)c1NC1CCOCC1 [Example 44, 1-Ethyl-N-(2-ethylbutyl)-4-(tetrahydro-2H-pyran-4-ylamino)-1H-pyrazolo[3,4-b]pyridine-5-carboxamide]"
6,12.6 to 100 nM,"CCn1ncc2c(NC3CCCC3)c(C(=O)Nc3ccc(F)cc3)cnc21 [Example 47, 4-(Cyclopentylamino)-1-ethyl-N-(4-fluorophenyl)-1H-pyrazolo[3,4-b]pyridine-5-carboxamide]"
7,126 nM,"Cn1ncc2c(NC3CCOCC3)c(C(=O)NCc3ccccc3)cnc21 [Example 63, N-Benzyl-1-methyl-4-(tetrahydro-2H-pyran-4-ylamino)-1H-pyrazolo[3,4-b]pyridine-5-carboxamide]"
8,0.1 to 6.31 nM,"CCn1ncc2c(NC3CCOCC3)c(C(=O)NCc3ccc(S(C)(=O)=O)cc3)cnc21 [Example 100, 1-Ethyl-N-[4-(methylsulfonyl)benzyl]-4-(tetrahydro-2H-pyran-4-ylamino)-1H-pyrazolo[3,4-b]pyridine-5-carboxamide]"
9,12.6 to 100 nM,"CCn1ncc2c(NC3CCOCC3)c(C(=O)NCc3nccs3)cnc21 [Example 109, 1-Ethyl-4-(tetrahydro-2H-pyran-4-ylamino)-N-(1,3-thiazol-2-ylmethyl)-1H-pyrazolo[3,4-b]pyridine-5-carboxamide]"
10,0.1 to 6.31 nM,"CCn1ncc2c(NC3CCOCC3)c(C(=O)NC3Cc4ccccc4C3)cnc21 [Example 165, N-(2,3-Dihydro-1H-inden-2-yl)-1-ethyl-4-(tetrahydro-2H-pyran-4-ylamino)-1H-pyrazolo[3,4-b]pyridine-5-carboxamide]"
11,0.1 to 6.31 nM,"CCn1ncc2c(NC3CCOCC3)c(C(=O)NCc3ccc(OC)c(OC)c3)cnc21 [Example 167, N-(3,4-Dimethoxybenzyl)-1-ethyl-4-(tetrahydro-2H-pyran-4-ylamino)-1H-pyrazolo[3,4-b)pyridine-5-carboxamide]"
12,12.6 to 100 nM,"CCn1ncc2c(NC3CCOCC3)c(C(=O)NCc3cnn(C)c3)cnc21 [Example 178, 1-Ethyl-N-[(1-methyl-1H-pyrazo1-4-yl)methyl]-4-(tetrahydro-2H-pyran-4-ylamino)-1H-pyrazolo[3,4-b]pyridine-5-carboxamide]"
13,12.6 nM,"CCn1ncc2c(NC3CCOCC3)c(C(=O)NCc3ccccc3)c(C)nc21 [Example 196, N-Benzyl-1-ethyl-6-methyl-4-(tetrahydro-2H-pyran-4-ylamino)-1H-pyrazolo[3,4-b]pyridine-5-carboxamide]"
14,0.1 to 6.31 nM,"CCn1ncc2c(NC3CCC(=O)CC3)c(C(=O)NCc3ccccc3)cnc21 [Example 201, N-Benzyl-1-ethyl-4-[(4-oxocyclohexyl)amino]-1H-pyrazolo[3,4-b]pyridine-5-carboxamide]"
